The subject of test [1] is CD8+ CD45RA/CD27 T cell subsets. Description: Proliferation assay (Ki67 staining) with PDL-1/2 blockade and p38 inhibitor. The format is cell-based, human. To be noted: CD8+ T cells at all four stages of differentiation (N, CM, EM, EMRA); 4 days anti-CD3 and irradiated autologous APCs; 10 μg/ml PDL1/2 blocking antibodies, 500 nM BIRB796; 4 donors. As for the experimental part: It was investigated whether either PD-1 or p38 signalling pathways contributed to the decreased proliferative activity of EMRA CD8^+ T cells. The four CD45RA/CD27 defined T cell subsets were isolated and then stimulated with anti-CD3 antibody and irradiated autologous APCs in the presence of either 10 μg/ml PDL1/2 blocking antibodies, 500 nM BIRB796 or both inhibitors together. Proliferative activity was determined by staining with Ki67 antibody. Representative histograms for the EMRA subset with and without the inhibitors is shown in FIG. 4A, while pooled results from all four subsets from 4 separate donors is shown in FIG. 4B.
PBMCs or sorted CD8^+ T cells were stimulated with 0.5 μg/ml plate coated anti-CD3 (OKT3) for 4 days and proliferation was assessed by staining for the nuclear antigen Ki67 that is expressed by cells at all stages of the cell cycle.
Signalling through PD-1 on purified total CD8^+ and CD27/CD45RA defined CD8^+ subsets was blocked by adding 10 μg/ml each of anti-PD-L1 (29E.2A3.C6) and anti-PD-L2 (24F.10C12.G12), or 10 μg/ml each of IgG2a (Mg2a-53) or IgG2b (MPC-11) isotype control antibodies (Abcam) at the start of the 4 day stimulation period with anti-CD3 (purified OKT3, 0.5 μg/ml) and irradiated APCs. The p38 inhibitor BIRB796 was added to the 4 day cultures at a final concentration of 500 nM and 0.1% DMSO was used as control.

The test system is the same in test [2]. Description: Telomerase activity (TRAP assay) with PDL-1/2 blockade and p38 inhibitor. Conditions: 4 days anti-CD3 and irradiated autologous APCs. The class given is cell-based, human. The source says: It was next investigated whether p38 or PD-1 signalling were involved in the decreased telomerase activity in EMRA CD8^+ T cells. […] Once again, CD8^+ T cell subsets were stimulated with anti-CD3 and irradiated autologous APCs in the presence of both inhibitors separately or together as in FIG. 4. […] The blockade of PD-1 signalling had no effect on telomerase activity in any of the subsets.
Purified CD8^+ T cell populations (2×10^5 cells) were snap-frozen after stimulation for 4 days with 0.5 μg/ml plate coated anti-CD3 (OKT3) and irradiated APCs. Telomerase activity was determined using the telomeric repeat amplification protocol (TRAP; TRAPeze telomerase detection kit; Chemicon) according to the protocol provided by the manufacturer. The absolute numbers of CD8^+ T cells were enumerated using trypan blue (Sigma). The TRAP assay was performed with samples adjusted to 500 Ki67^+ T cells per reaction to control for the different extents of proliferation in the different subsets after activation.
Signalling through PD-1 on purified total CD8^+ and CD27/CD45RA defined CD8^+ subsets was blocked by adding 10 μg/ml each of anti-PD-L1 (29E.2A3.C6) and anti-PD-L2 (24F.10C12.G12), or 10 μg/ml each of IgG2a (Mg2a-53) or IgG2b (MPC-11) isotype control antibodies (Abcam) at the start of the 4 day stimulation period with anti-CD3 (purified OKT3, 0.5 μg/ml) and irradiated APCs. […]

As for `Cc1ccc(-n2nc(C(C)(C)C)cc2NC(=O)Nc2ccc(OCCN3CCOCC3)c3ccccc23)cc1` [BIRB796], in test [1], the “proliferative activity (Ki67 staining)” value was “increased proliferative activity”. Also, the telomerase activity result in test [2] (CD45RA+CD27− (EMRA) CD8+ population, 500 nM BIRB796, 10 μg/ml anti-PDL1/2, p<0.05, 4 donors) is on record as “significant increase”; in test [2] (N, CM and EM CD8+ T cells, p38 signalling blocked (500 nM BIRB796), results not significant), “trend towards increased telomerase activity”.

These data come from patent US20150017185A1, “METHOD TO IMPROVE THE IMMUNE FUNCTION OF T CELLS” (UCL BUSINESS PLC, priority 2011, published 2015).
